Experimental data as given in ChEMBL document CHEMBL1149344, “Discovery of aminoquinazolines as potent, orally bioavailable inhibitors of Lck: synthesis, SAR, and in vivo anti-inflammatory activity” (J Med Chem, 2006).
Values after ≈ are worked out from the molar mass of the structure shown.

Key:
[1] = biological target: Mitogen-activated protein kinase 14 (Homo sapiens, UniProt Q16539); experiment: Inhibition of p38-alpha by HTRF kinase assay
[2] = biological target: Serine/threonine-protein kinase PAK 2 (Homo sapiens, UniProt Q13177); experiment: Inhibition of Pak2 by HTRF kinase assay
T-cell [3] = experiment: Inhibition of human T cell proliferation by mixed lymphocyte reaction
[4] = Clearance in Sprague-Dawley rat at 1 mg/kg, iv; format: ADME, organism-based; parameters: dose 1 mg/kg, route intravenous; conditions: in vivo
[5] = biological target: Tyrosine-protein kinase SYK (Homo sapiens, UniProt P43405); experiment: Inhibition of Syk by HTRF kinase assay
[6] = biological target: Non-receptor tyrosine-protein kinase TYK2 (Homo sapiens, UniProt P29597); experiment: Inhibition of Tyk2 by HTRF kinase assay
Sequence of Non-receptor tyrosine-protein kinase TYK2 (P29597 whole entry): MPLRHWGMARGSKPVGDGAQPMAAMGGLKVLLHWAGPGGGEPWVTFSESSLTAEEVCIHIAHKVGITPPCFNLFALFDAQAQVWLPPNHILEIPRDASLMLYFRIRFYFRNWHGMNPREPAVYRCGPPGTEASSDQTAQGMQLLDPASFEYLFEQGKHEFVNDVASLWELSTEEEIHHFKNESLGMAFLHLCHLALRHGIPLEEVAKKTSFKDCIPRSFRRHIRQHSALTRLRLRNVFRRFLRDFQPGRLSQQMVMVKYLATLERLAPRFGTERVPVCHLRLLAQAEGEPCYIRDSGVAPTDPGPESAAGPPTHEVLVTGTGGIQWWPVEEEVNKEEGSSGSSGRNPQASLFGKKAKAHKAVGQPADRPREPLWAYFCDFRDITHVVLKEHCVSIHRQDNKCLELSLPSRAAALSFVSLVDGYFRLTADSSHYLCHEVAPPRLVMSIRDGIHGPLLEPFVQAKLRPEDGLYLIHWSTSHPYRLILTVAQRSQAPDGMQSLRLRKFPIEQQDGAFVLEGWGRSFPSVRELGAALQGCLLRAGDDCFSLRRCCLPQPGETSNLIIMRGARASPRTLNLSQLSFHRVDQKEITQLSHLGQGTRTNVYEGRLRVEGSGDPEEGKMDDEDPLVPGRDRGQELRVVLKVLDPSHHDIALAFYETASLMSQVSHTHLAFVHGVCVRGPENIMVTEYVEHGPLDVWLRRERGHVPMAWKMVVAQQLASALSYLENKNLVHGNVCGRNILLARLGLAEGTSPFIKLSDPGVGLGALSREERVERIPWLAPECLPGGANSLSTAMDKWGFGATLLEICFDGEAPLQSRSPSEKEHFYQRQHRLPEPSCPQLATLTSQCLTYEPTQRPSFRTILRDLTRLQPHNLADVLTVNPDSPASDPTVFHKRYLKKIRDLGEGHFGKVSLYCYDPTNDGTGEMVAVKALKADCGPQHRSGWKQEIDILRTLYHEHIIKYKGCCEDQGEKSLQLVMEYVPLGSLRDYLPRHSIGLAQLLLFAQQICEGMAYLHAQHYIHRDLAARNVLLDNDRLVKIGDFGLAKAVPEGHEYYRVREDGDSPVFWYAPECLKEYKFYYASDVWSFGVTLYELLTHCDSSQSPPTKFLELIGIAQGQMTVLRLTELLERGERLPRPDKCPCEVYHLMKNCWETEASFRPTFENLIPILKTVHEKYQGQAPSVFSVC

[7] = biological target: Tyrosine-protein kinase ITK/TSK (Homo sapiens, UniProt Q08881); experiment: Inhibition of Itk by HTRF kinase assay
Mus musculus [8] = experiment: Inhibition of anti CD3-induced IL2 production in BALB/c mouse at 100 mg/kg, po relative to control; format: functional
[9] = biological target: Mitogen-activated protein kinase 9 (Homo sapiens, UniProt P45984); experiment: Inhibition of JNK2 by HTRF kinase assay
Sequence of Mitogen-activated protein kinase 9 (P45984 whole entry): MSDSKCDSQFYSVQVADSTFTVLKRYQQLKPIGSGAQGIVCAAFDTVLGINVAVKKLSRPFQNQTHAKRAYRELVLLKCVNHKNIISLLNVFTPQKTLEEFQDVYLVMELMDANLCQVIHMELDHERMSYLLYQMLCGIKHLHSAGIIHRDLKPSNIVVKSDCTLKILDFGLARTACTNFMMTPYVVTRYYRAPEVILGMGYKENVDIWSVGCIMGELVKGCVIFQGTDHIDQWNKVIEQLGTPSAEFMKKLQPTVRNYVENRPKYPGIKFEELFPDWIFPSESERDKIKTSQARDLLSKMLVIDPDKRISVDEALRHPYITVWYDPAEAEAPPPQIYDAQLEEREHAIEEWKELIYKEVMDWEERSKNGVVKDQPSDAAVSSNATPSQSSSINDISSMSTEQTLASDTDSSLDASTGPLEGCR

[10] = biological target: Cyclin-dependent kinase 5 (Homo sapiens, UniProt Q00535); experiment: Inhibition of CDK5 by HTRF kinase assay
Sequence of Cyclin-dependent kinase 5 (Q00535 whole entry): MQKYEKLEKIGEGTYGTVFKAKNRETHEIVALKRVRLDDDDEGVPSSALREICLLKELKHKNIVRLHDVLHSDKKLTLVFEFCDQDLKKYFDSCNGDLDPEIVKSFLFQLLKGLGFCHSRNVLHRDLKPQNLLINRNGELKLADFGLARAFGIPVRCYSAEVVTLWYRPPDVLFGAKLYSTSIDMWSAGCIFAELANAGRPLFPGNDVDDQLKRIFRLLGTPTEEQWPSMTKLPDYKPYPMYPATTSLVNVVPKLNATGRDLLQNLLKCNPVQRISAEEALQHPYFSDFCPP

Mus musculus [11] = experiment: Unbound plasma concentration in po dosed BALB/c mouse; format: ADME, organism-based
[12] = biological target: Mitogen-activated protein kinase 8 (Homo sapiens, UniProt P45983); experiment: Inhibition of JNK1 by HTRF kinase assay
Homo sapiens [13] = species: Homo sapiens; experiment: Inhibition of anti CD3-induced IL2 production in human whole blood; format: functional
Mus musculus [14] = experiment: Inhibition of anti CD3-induced IL2 production in BALB/c mouse at 30 mg/kg, po relative to control; format: functional
[15] = biological target: Tyrosine-protein kinase ZAP-70 (Homo sapiens, UniProt P43403); experiment: Inhibition of Zap70 by HTRF kinase assay
[16] = biological target: Proto-oncogene tyrosine-protein kinase Src (Homo sapiens, UniProt P12931); experiment: Inhibition of Src by HTRF kinase assay
Mus musculus [17] = experiment: Mean terminal plasma concentration in BALB/c mouse at 11 mg/kg, po after […]; format: ADME, organism-based; parameters: dose 11 mg/kg, route oral
[18] = biological target: T1, Tyrosine-protein kinase JAK3 (Homo sapiens, UniProt P52333); experiment: Inhibition of Jak3 by HTRF kinase assay
T1 sequence (P52333 whole entry): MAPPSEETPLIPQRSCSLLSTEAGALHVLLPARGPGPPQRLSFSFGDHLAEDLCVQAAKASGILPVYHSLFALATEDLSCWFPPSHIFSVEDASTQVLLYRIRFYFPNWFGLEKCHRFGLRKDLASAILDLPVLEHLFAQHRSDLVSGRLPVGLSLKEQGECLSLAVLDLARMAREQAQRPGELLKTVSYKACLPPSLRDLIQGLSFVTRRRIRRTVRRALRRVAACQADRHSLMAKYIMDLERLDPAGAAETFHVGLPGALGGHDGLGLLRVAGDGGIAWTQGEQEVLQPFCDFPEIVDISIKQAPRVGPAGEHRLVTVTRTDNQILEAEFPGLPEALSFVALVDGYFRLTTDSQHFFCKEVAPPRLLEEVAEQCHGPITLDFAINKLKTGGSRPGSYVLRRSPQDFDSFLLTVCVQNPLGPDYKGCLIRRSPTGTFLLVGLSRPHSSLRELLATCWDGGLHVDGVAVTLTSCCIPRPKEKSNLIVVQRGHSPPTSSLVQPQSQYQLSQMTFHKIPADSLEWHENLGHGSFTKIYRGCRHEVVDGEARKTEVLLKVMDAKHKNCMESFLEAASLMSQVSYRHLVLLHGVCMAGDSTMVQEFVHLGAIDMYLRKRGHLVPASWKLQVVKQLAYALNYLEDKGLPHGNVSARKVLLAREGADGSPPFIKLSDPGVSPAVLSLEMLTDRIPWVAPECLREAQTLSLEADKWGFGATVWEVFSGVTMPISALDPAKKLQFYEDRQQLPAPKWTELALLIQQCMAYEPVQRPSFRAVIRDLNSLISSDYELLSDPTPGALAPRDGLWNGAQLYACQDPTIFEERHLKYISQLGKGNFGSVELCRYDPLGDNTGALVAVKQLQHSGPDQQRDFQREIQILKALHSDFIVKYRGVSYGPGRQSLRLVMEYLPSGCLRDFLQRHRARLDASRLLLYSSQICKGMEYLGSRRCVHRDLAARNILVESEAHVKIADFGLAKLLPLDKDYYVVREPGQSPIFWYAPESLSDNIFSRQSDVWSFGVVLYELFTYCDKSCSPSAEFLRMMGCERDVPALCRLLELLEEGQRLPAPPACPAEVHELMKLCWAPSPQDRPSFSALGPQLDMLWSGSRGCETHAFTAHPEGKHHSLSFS

[19] = Cmax in Sprague-Dawley rat at 5 mg/kg, po; format: ADME, organism-based; parameters: dose 5 mg/kg, route oral; conditions: in vivo
[20] = Volume of distribution in Sprague-Dawley rat at 1 mg/kg, iv; format: ADME, organism-based; parameters: dose 1 mg/kg, route intravenous; conditions: in vivo, read-out: Vss
[21] = Tmax in Sprague-Dawley rat at 5 mg/kg, po; format: ADME, organism-based; parameters: dose 5 mg/kg, route oral; conditions: in vivo
[22] = Half life in Sprague-Dawley rat at 1 mg/kg, iv; format: ADME, organism-based; parameters: dose 1 mg/kg, route intravenous; conditions: in vivo
T-cell [23] = experiment: Inhibition of anti CD3/CD28-induced IL2 secretion in human T cells; format: functional, cell-based
Mus musculus [24] = experiment: Inhibition of anti CD3-induced IL2 production in BALB/c mouse at 10 mg/kg, po relative to control; format: functional
[25] = biological target: Tyrosine-protein kinase Lck (Homo sapiens, UniProt P06239)
Description: Inhibition of Lck by HTRF kinase assay

[26] = AUC (0-infinity) in Sprague-Dawley rat at 5 mg/kg, po; format: ADME, organism-based; parameters: time infinity, dose 5 mg/kg, route oral; conditions: plasma
[27] = biological target: Ribosomal protein S6 kinase alpha-5 (Homo sapiens, UniProt O75582); experiment: Inhibition of MSK1 by HTRF kinase assay
Sequence of Ribosomal protein S6 kinase alpha-5 (O75582 whole entry): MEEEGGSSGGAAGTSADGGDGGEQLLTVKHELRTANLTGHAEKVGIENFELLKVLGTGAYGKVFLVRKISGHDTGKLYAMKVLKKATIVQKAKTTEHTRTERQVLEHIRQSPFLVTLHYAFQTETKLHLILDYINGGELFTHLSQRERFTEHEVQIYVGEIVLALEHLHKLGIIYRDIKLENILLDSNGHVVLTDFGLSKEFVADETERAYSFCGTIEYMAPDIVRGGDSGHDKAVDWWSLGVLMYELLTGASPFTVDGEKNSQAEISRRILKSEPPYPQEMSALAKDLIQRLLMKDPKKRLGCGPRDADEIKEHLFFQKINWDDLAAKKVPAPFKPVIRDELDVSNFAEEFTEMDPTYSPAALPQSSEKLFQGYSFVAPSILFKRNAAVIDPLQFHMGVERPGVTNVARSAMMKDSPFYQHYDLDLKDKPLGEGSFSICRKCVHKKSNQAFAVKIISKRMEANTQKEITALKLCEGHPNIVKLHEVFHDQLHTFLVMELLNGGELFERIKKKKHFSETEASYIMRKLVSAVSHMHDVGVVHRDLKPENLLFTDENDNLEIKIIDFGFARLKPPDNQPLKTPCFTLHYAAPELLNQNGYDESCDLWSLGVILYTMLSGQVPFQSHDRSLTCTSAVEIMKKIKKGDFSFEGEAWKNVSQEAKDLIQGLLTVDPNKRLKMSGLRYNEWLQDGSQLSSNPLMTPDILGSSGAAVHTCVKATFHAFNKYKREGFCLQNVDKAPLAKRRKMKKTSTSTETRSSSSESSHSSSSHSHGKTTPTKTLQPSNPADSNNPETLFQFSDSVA

[28] = biological target: Mitogen-activated protein kinase 10 (Homo sapiens, UniProt P53779); experiment: Inhibition of JNK3 by HTRF kinase assay
Sequence of Mitogen-activated protein kinase 10 (P53779 whole entry): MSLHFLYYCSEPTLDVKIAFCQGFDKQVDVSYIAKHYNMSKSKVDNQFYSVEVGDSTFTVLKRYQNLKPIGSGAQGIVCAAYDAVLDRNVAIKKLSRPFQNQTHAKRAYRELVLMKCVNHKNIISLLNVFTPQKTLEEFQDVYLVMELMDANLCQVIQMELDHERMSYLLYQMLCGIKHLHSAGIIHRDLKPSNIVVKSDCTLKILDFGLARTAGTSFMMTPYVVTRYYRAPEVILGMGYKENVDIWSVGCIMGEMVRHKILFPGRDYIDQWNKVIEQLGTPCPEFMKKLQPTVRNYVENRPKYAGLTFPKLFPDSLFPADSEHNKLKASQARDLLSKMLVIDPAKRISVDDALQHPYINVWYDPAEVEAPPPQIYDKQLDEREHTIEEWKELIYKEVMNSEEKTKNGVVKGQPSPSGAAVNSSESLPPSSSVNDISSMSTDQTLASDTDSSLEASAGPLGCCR

Homo sapiens [29] = species: Homo sapiens; experiment: Inhibition of […] TNF alpha production in human whole blood; format: functional
[30] = Protein binding in mouse plasma; format: ADME; conditions: read-out: PPB (converted)
[31] = Solubility in fasted state simulated intestinal fluid at pH 6.8; format: physicochemical; conditions: read-out: Solubility
[32] = biological target: RAC-alpha serine/threonine-protein kinase (Homo sapiens, UniProt P31749); experiment: Inhibition of PKBalpha by HTRF kinase assay
[33] = Bioavailability in Sprague-Dawley rat at 5 mg/kg, po; format: ADME, organism-based; conditions: in vivo
[34] = Clearance in Sprague-Dawley rat at 2 mg/kg, iv; format: ADME, organism-based; parameters: dose 2 mg/kg, route intravenous; conditions: in vivo
[35] = biological target: Vascular endothelial growth factor receptor 2 (Homo sapiens, UniProt P35968); experiment: Inhibition of KDR by HTRF kinase assay
Sequence of Vascular endothelial growth factor receptor 2 (P35968 whole entry): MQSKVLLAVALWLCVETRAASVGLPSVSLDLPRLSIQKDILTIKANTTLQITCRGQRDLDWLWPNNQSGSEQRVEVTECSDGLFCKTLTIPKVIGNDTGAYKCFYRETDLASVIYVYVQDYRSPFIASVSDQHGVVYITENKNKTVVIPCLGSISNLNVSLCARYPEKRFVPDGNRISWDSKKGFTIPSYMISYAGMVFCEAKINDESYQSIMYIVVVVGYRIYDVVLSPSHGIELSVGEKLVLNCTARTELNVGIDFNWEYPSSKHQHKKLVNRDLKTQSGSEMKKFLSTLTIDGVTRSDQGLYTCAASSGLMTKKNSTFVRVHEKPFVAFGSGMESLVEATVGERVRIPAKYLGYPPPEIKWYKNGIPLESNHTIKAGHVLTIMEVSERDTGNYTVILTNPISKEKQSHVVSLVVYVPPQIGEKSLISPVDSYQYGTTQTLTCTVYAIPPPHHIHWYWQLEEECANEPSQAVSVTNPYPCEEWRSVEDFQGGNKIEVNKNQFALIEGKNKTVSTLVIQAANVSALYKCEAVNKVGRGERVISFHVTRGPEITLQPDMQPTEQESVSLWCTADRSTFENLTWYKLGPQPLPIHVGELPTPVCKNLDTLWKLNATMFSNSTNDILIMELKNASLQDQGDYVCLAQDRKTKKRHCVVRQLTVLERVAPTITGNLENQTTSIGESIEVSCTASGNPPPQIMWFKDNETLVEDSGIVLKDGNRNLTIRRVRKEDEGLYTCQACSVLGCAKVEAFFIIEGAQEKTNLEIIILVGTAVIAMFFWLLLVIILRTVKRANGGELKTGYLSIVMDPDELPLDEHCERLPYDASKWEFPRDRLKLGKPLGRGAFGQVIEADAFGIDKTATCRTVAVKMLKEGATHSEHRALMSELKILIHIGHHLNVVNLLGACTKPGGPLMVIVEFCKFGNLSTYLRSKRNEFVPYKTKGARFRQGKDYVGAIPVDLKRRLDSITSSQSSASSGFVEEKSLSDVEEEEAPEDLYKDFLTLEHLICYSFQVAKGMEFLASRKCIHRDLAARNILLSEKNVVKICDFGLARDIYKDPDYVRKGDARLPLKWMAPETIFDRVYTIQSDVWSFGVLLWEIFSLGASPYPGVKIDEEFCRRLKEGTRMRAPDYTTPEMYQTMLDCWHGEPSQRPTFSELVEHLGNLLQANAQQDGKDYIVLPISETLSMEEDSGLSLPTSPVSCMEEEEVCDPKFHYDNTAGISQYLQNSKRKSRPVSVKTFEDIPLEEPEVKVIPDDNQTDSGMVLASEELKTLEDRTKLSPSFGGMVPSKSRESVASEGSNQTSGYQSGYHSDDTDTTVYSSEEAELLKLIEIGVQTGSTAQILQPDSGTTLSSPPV

[36] = Volume of distribution in Sprague-Dawley rat at 2 mg/kg, iv; format: ADME, organism-based; parameters: dose 2 mg/kg, route intravenous; conditions: in vivo, read-out: Vss
[37] = Half life in Sprague-Dawley rat at 2 mg/kg, iv; format: ADME, organism-based; parameters: dose 2 mg/kg, route intravenous; conditions: in vivo
[38] = Protein binding in rat plasma; format: ADME, cell-free; conditions: read-out: PPB (converted)
[39] = biological target: cAMP-dependent protein kinase catalytic subunit beta (Homo sapiens, UniProt P22694); experiment: Inhibition of PKAbeta by HTRF kinase assay
[40] = Clearance in Sprague-Dawley rat at 5 mg/kg, iv; format: ADME, organism-based; parameters: dose 5 mg/kg, route intravenous; conditions: in vivo
[41] = Half life in Sprague-Dawley rat at 5 mg/kg, iv; format: ADME, organism-based; parameters: dose 5 mg/kg, route intravenous; conditions: in vivo
[42] = Tmax in Sprague-Dawley rat at 2 mg/kg, po; format: ADME, organism-based; parameters: dose 2 mg/kg, route oral; conditions: in vivo
[43] = biological target: Tyrosine-protein kinase BTK (Homo sapiens, UniProt Q06187); experiment: Inhibition of Btk by HTRF kinase assay
[44] = Bioavailability in Sprague-Dawley rat at 2 mg/kg, po; format: ADME, organism-based; conditions: in vivo
[45] = Cmax in Sprague-Dawley rat at 2 mg/kg, po; format: ADME, organism-based; parameters: dose 2 mg/kg, route oral; conditions: in vivo
Mus musculus [46] = experiment: Mean terminal plasma concentration in BALB/c mouse at 22 mg/kg, po after […]; format: ADME, organism-based; parameters: dose 22 mg/kg, route oral
[47] = Volume of distribution in Sprague-Dawley rat at 5 mg/kg, iv; format: ADME, organism-based; parameters: dose 5 mg/kg, route intravenous; conditions: in vivo, read-out: Vss
[48] = AUC (0-infinity) in Sprague-Dawley rat at 2 mg/kg, po; format: ADME, organism-based; parameters: time infinity, dose 2 mg/kg, route oral; conditions: plasma

Sequence of Mitogen-activated protein kinase 14 (Q16539 whole entry): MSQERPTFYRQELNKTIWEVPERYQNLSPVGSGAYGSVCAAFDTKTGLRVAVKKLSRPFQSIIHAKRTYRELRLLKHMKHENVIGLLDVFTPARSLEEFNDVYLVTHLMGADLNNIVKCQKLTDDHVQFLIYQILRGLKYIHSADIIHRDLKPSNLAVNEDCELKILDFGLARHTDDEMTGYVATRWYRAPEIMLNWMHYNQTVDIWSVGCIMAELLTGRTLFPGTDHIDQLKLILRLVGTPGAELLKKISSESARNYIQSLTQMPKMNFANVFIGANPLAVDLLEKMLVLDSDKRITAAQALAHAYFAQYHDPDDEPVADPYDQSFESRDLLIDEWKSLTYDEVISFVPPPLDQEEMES

Compound | IC50 [1] [nM] | IC50 [2] [nM] | IC50 (T-cell [3]) [nM] | IC50 [5] [nM] | IC50 [6] [nM] | IC50 [7] [nM] | inhibition in vivo at 100 mg/kg (Mus musculus [8]) [%] | IC50 [9] [nM] | IC50 [10] [nM] | IC50 [12] [nM] | Activity (Homo sapiens [13]) [µM] | inhibition in vivo at 30 mg/kg (Mus musculus [14]) [%] | IC50 [15] [nM] | IC50 [16] [nM] | IC50 [18] [nM] | Cmax [19] [ng/mL] | Tmax [21] [h] | IC50 (T-cell [23]) [nM] | inhibition in vivo at 10 mg/kg (Mus musculus [24]) [%] | Activity (Homo sapiens [29]) [µM] | other results
Cc1ccc(C(=O)Nc2cccc(C(F)(F)F)c2)cc1-c1ccc2nc(NCCN3CCOCC3)ncc2c1 | 3 | > 25000 | 30 | 292 | 1830 | > 25000 | 91 | 173 | > 25000 | 389 | 0.272 | 84 | > 25000 | 2 | 72 | 128 | 3 | 21 | 49 | >2.5 | clearance [4]: 48 mL/min/kg; EC50 (Mus musculus [11]): 18 nM; EC50 (Mus musculus [17]): 630 nM; Vd [20]: 5.04 L/kg; half-life [22]: 1.8 h; IC50 [25]: 0.2 nM; AUC(0-inf) [26]: 668 ng·h/mL; IC50 [27]: > 25000 nM; IC50 [28]: 145 nM; fraction unbound [30]: 0.029; solubility [31]: 159 µg/mL (≈ 297 µM); IC50 [32]: > 25000 nM; bioavailability [33]: 38%
Cc1ccc(C(=O)Nc2cccc(C(F)(F)F)c2)cc1-c1ccc2nc(N)ncc2c1 | 6 | – | 87 | – | – | – | – | – | – | – | 0.216 | – | – | – | 20 | 19 | 4 | 88 | – | >10 | clearance [34]: 18.4 mL/min/kg; IC50 [35]: 2 nM; Vd [36]: 1.55 L/kg; AUC(0-inf) [26]: 91 ng·h/mL; fraction unbound [30]: 0.006; solubility [31]: 27 µg/mL (≈ 63.9 µM); half-life [37]: 2.7 h; fraction unbound [38]: 0.024; bioavailability [33]: 2%
CNc1ncc2cc(-c3cc(C(=O)Nc4cc(C(F)(F)F)ccc4OC4CCN(C)CC4)ccc3C)ccc2n1 | 9 | > 25000 | 243 | 1110 | 2730 | > 5000 | 96 | > 25000 | > 25000 | > 10000 | 0.113 | 72 | > 25000 | 17 | 868 | – | – | 36 | -3 | >2.5 | IC50 [39]: > 25000 nM; clearance [40]: 13.9 mL/min/kg; IC50 [35]: 17 nM; half-life [41]: 6.5 h; Tmax [42]: 6 h; IC50 [25]: 0.5 nM; IC50 [43]: 3330 nM; bioavailability [44]: 55%; IC50 [27]: > 25000 nM; IC50 [28]: > 5000 nM; Cmax [45]: 121 ng/mL; EC50 (Mus musculus [46]): 1400 nM; Vd [47]: 7.63 L/kg; IC50 [32]: > 25000 nM; AUC(0-inf) [48]: 1370 ng·h/mL
